In ChEMBL document CHEMBL3779823, “Structure of amyloid oligomers and their mechanisms of toxicities: Targeting amyloid oligomers using novel therapeutic approaches” (2016):

Tested on: Mus musculus
Test: Reduction in Abeta oligomers levels in Tg2576 mouse administered for 4 weeks
Type: functional

NS(=O)(=O)c1cc(C(=O)O)c(NCc2ccco2)cc1Cl [FUROSEMIDE]
inhibition (INH): 30%
